Results on nine molecules are retold here after US20230257372A1 (CHONG KUN DANG PHARMACEUTICAL CORP., priority 2020, published 2023).

One assay addresses T1, human recombinant HDAC1 (Homo sapiens, UniProt Q13547).
T1 construct: purchased Enzo Life Science, Inc. BML-SE456
In words: HDAC1 enzyme activity inhibition (HDAC Fluorimetric Drug Discovery Kit). It is filed as biochemical. The settings on record: human recombinant HDAC1, Fluor de Lys substrate, 30° C. 60 minutes; read-out: HDAC1. Put shortly: (§1)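 Compounds in 5-fold dilution series were incubated with […] enzyme and 10 μM substrate at 30° C for 60 minutes. Fluor de Lys Developer II was then added for 30 minutes to stop the reaction and develop the fluorescent signal.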

Another assay addresses T2, human recombinant HDAC6 (Homo sapiens, UniProt Q9UBN7).
T2 construct: purchased Calbiochem Inc. 382180
T2 sequence (Q9UBN7 1-1215): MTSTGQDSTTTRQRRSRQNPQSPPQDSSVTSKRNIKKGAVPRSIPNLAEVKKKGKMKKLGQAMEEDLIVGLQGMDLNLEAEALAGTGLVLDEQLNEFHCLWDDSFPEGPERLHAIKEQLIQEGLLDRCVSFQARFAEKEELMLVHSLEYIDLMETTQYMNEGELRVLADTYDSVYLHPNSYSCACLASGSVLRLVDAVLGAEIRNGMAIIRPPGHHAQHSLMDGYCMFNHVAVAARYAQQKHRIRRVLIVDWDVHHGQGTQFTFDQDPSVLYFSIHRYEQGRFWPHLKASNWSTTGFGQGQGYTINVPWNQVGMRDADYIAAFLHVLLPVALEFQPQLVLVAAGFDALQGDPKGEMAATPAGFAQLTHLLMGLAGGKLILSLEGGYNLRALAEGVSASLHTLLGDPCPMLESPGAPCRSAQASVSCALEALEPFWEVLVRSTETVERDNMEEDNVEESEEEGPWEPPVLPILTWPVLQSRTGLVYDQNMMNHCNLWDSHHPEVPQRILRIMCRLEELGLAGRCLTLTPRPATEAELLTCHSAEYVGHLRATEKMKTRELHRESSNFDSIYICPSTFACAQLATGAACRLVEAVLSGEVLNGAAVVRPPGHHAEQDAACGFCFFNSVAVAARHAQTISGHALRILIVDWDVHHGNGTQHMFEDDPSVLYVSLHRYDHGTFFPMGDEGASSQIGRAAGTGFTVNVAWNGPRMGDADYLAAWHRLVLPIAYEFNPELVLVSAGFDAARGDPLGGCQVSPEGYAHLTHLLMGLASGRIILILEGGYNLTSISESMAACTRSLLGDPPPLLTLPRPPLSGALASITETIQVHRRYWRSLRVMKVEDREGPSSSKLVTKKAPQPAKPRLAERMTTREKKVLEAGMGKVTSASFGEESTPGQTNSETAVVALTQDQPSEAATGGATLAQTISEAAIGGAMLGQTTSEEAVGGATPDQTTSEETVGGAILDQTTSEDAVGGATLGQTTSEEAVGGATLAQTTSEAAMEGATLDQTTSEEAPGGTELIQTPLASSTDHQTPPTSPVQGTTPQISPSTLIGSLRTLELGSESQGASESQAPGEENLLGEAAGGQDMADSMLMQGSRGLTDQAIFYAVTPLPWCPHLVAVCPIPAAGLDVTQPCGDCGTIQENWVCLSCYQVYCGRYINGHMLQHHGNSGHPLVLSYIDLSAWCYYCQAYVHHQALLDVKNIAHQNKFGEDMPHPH
In words: HDAC6 enzyme activity inhibition (HDAC Fluorimetric Drug Discovery Kit). It is filed as biochemical. To be noted: for HDAC6 selectivity (fold): HDAC6 over HDAC1; for IC50: human recombinant HDAC6, same protocol as HDAC1. Put shortly:
as §1

T1 sequence (Q13547 whole entry): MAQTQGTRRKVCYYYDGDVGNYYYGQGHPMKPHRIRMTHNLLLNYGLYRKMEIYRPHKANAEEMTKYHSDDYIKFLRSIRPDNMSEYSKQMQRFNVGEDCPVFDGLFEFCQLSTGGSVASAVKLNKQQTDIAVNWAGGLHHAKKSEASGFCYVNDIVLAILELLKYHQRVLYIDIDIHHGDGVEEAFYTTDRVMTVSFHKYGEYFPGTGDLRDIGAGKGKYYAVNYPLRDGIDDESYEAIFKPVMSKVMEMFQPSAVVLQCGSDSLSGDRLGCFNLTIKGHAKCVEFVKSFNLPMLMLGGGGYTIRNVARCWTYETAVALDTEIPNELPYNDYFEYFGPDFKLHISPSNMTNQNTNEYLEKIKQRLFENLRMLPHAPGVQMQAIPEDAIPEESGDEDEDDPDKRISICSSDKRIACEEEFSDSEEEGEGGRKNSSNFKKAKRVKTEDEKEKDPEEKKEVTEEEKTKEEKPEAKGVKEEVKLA

For `CN1CCN(c2ccc(-c3cn(Cc4ccc(-c5nnc(C(F)F)o5)cc4F)nn3)cn2)CC1` [Compound 16789, 2-(difluoromethyl)-5-(3-fluoro-4-((4-(6-(4-methylpiperazin-1-yl)pyridin-3-yl)-1H-1,2,3-triazol-1-yl)methyl)phenyl)-1,3,4-oxadiazole], the IC50 on human recombinant HDAC1 is over 50 µM. Further, on human recombinant HDAC6, the “HDAC6 selectivity (fold)” value turned out to be 628 fold and the IC50 was 79.5 nM.
Consider `Fc1cc(-c2nnc(C(F)F)o2)ccc1Cn1cc(-c2ccc(N3CCNCC3)cc2F)nn1` [Compound 16797, 2-(difluoromethyl)-5-(3-fluoro-4-((4-(2-fluoro-4-(piperazin-1-yl)phenyl)-1H-1,2,3-triazol-1-yl)methyl)phenyl)-1,3,4-oxadiazole], for which the IC50 at human recombinant HDAC1 was over 50 µM; at human recombinant HDAC6 it was 67.7 nM. In addition, the “HDAC6 selectivity (fold)” value at human recombinant HDAC6 is 738 fold.
As for `Fc1cc(-c2nnc(C(F)F)o2)ccc1Cn1cc(-c2ccc(Br)cn2)nn1` [Compound 16928, 2-(4-((4-(5-bromopyridin-2-yl)-1H-1,2,3-triazol-1-yl)methyl)-3-fluorophenyl)-5-(difluoromethyl)-1,3,4-oxadiazole], the IC50 on human recombinant HDAC1 is over 50 µM. Further, on human recombinant HDAC6, the “HDAC6 selectivity (fold)” value worked out at 586 fold and the IC50 was found to be 85.3 nM.
For `Fc1cc(-c2nnc(C(F)F)o2)ccc1Cn1cc(-c2cncc(Br)c2)nn1` [Compound 16930, 2-(4-((4-(5-bromopyridin-3-yl)-1H-1,2,3-triazol-1-yl)methyl)-3-fluorophenyl)-5-(difluoromethyl)-1,3,4-oxadiazole], in that order: over 50 µM, 1043 fold and 47.9 nM.
On to `Fc1cc(-c2nnc(C(F)F)o2)ccc1Cn1cc(-c2cncc(-c3cn[nH]c3)c2)nn1` [Compound 17058, 2-(4-((4-(5-(1H-pyrazol-4-yl)pyridin-3-yl)-1H-1,2,3-triazol-1-yl)methyl)-3-fluorophenyl)-5-(difluoromethyl)-1,3,4-oxadiazole], for which the IC50 at human recombinant HDAC1 is over 50 µM. Also, on human recombinant HDAC6, the “HDAC6 selectivity (fold)” value came to 2777 fold and the IC50 came out at 18 nM.
Take `Fc1cc(-c2nnc(C(F)F)o2)ccc1Cn1cc(-c2cn[nH]c2)nn1` [Compound 17261, 2-(4-((4-(1H-pyrazol-4-yl)-1H-1,2,3-triazol-1-yl)methyl)-3-fluorophenyl)-5-(difluoromethyl)-1,3,4-oxadiazole]: the IC50 on human recombinant HDAC1 is over 50 µM; on human recombinant HDAC6 it was 49.4 nM. The “HDAC6 selectivity (fold)” value at human recombinant HDAC6 came out at 1012 fold.
Regarding `Fc1cc(-c2nnc(C(F)F)o2)ccc1Cn1cc(-c2cccc(Br)n2)nn1` [Compound 17263, 2-(4-((4-(6-bromopyridin-2-yl)-1H-1,2,3-triazol-1-yl)methyl)-3-fluorophenyl)-5-(difluoromethyl)-1,3,4-oxadiazole], the IC50 at human recombinant HDAC1 was over 50 µM. Also, at human recombinant HDAC6, the “HDAC6 selectivity (fold)” value was found to be 1126 fold and the IC50 turned out to be 44.4 nM.
In the case of `Fc1cc(-c2nnc(C(F)F)o2)cnc1Cn1cc(-c2ccccc2)nn1` [Compound 17347, 2-(difluoromethyl)-5-(5-fluoro-6-((4-phenyl-1H-1,2,3-triazol-1-yl)methyl)pyridin-3-yl)-1,3,4-oxadiazole], on human recombinant HDAC1, the IC50 was over 50 µM. At human recombinant HDAC6, the “HDAC6 selectivity (fold)” value was determined as 628 fold and the IC50 is 79.6 nM.
As to `CCN1CCN(c2cccc(-c3cn(Cc4ccc(-c5nnc(C(F)F)o5)cc4F)nn3)n2)CC1` [Compound 17362, 2-(difluoromethyl)-5-(4-((4-(6-(4-ethylpiperazin-1-yl)pyridin-2-yl)-1H-1,2,3-triazol-1-yl)methyl)-3-fluorophenyl)-1,3,4-oxadiazole], the IC50 at human recombinant HDAC1 is over 50 µM. For the same molecule, at human recombinant HDAC6, the “HDAC6 selectivity (fold)” value came to 2032 fold and the IC50 came to 24.6 nM.
